How the values were obtained:
[1] = tested on: panel of G12C and non G12C lines pooled in vivo as xenografts; assay: GENEVA combination therapy study in cell line pools in vivo as xenografts; design: species or system mouse; settings: in combination with ARS1620; for drug synergy from cell cycle active/inactive proportions: G12C lines
Experimental: Treatment conditions include Antimycin, ARS1620, Galunisertib, INK128, DMSO, ARS1620+Antimycin, ARS1620+Galunisertib, ARS1620+INK128. FIG. 8B utilizes GENEVA data from FIG. 8A for synergy calculations performed on cell cycle states in each drug condition singly and in combination estimated for G12C lines across drug conditions.
2 mL of Matrigel Basement Membrane reagent was added to the GENEVA pool prepared by growth rate balancing for a final concentration of 20M/mL. One hundred microliters of this solution was injected into NSG mice in a flank xenograft injection. Twenty-four hours later, mice harboring GENEVA tumors were drugged with the drug compound in a vehicle solution of 5% DMSO, 95% Labrasol. Mice were dosed by oral gavage four fourteen days with five days on, two days off. On the fourteenth day, mice were sacrificed, tumors harvested by homogenization with surgical shears and resuspended in 5 mg/mL Liberase™ Cell Dissociation Reagent in 1:1 DMEM: F12 cell media, DNAse I (10 U/uL). Tumors were incubated in a 37° C. incubator with shaking at 600 RPMs for 45 minutes for enzymatic dissociation and then spun down at 800 g for 5 minutes at 4° C. Dissociated tumors were resuspended in 100 uL 1×PBS.
A panel of G12C and non G12C lines pooled in vivo as xenografts was utilized to conduct combination therapy studies comparing ARS1620 with and without Galunisertib, INK128, and Antimycin for a total of eight different treatment conditions; these compounds were taken from our combination therapy discoveries and mechanistic understanding of mitochondrial action of ARS1620 (FIG. 8A).

lipid peroxidation = assay: Lipid peroxidation live cell probe dose curve and survival kinetics; assay type: cell-based; settings: dose curves
Text: FIG. 7B plots gene expression of anti-ferroptotic genes for each cell line in response to increasing ARS1620 dosage. […] Lipid peroxidation and survival kinetics cross over around IC50 in all compounds indicating ARS1620 performs as a ferroptosis inducing agent.
Among this group of genes were FTH1 and FTL, the two components of the Ferritin Complex, which is responsible for sequestration of labile free iron. Using a lipid peroxidation live cell probe, lipid peroxidation—one of the hallmark phenotypes of ferroptosis—was measured in response to ARS-1620 treatment.

[2] = tested on: H1373 KRAS.G12C mutant line; assay: Multi-arm combination therapy in-vivo mouse study; settings: in combination with ARS1620; for synergy in tumor growth reduction: compared to null model of independence
Experimental: Bliss drug synergy is plotted and several compounds show significant drug synergy with multiple KRAS.G12C inhibitors.
Using the GENEVA dataset of ARS-1620 in a fourteen day drug treatment timeline in which drug resistance developed, gene expression indicators of resistance mechanisms were obtained (FIG. 4A). […] The strongest GENEVA prediction, mTOR resistance, was tested in a multi-arm in vivo mouse study and significant in vivo Bliss drug synergy and tumor reduction over time was found (FIG. 4C,D).
The GENEVA datasets were compared where GENEVA pools were drugged with the KRAS.G12C inhibitor ARS1620, conducted both in vitro and in vivo. Specifically, the in vitro data were compared against the in vivo data to look for differences and similarities attributable to the context of the model systems used. […] As a validation study, a combination therapy multi-arm in vivo mouse study was designed to test the efficacy of an EMT inhibitor, Galunisertib in combination with ARS1620.

Compound	drug synergy from cell cycle active/inactive proportions [1]	cross-over of survival and normalized lipid peroxidation curves (lipid peroxidation)	synergy in tumor growth reduction [2]	suppression of tumor growth (relative tumor volume) ([2]; n=4-5 mice per condition)	gene-level synergy on mitochondrial reads (linear model) [1]
antimycin	antagonistic effect	–	–	–	–
CN(C)c1nc(N(C)C)nc(N(C)C)n1 [Altretamine]	–	crossed over around the IC50 survival value	–	–	–
Cc1cccc(-c2nn3c(c2-c2ccnc4ccc(C(N)=O)cc24)CCC3)n1 [Galunisertib]	relative in vivo synergy	–	reduce growth synergistically	extremely effective in suppressing tumor growth	further increase the synergistic decrease in mitochondrial reads
CC(C)n1nc(-c2ccc3oc(N)nc3c2)c2c(N)ncnc21 [INK128]	relative in vivo synergy	–	synergistically reduce tumor growth in-vivo	–	further increase the synergistic decrease in mitochondrial reads
